Converted amounts (≈) assume the structure as drawn. Counter-ions that a name gives are not always drawn.
Legend:
Type in all cases: physicochemical
[1] = Solubility in 2-pyrrolidone; settings: 25° C., mixed for 30 min, Licofelone in supernatant by HPLC
Description: Approx. 500 mg Licofelone (free acid) or the corresponding salt (examples 1A and 2) were suspended in 1 ml 2-pyrrolidone and mixed for 30 min. The temperature was maintained at 25° C. After centrifugation the concentration of Licofelone in the supernatant was determined by HPLC with UV detection.

[2] = Storage stability at elevated temperatures (sum of known and unknown impurities)
Description: The raw materials (a) Licofelone, (b) Licofelone choline salt (example 1A) and (c) Licofelone tromethamine salt (example 2) were stored in open containers at 40, 50, 60 and 70° C. as well as at 40° C. with 75% relative humidity. Samples were analyzed after storage periods of 4 and 8 weeks. A validated method was applied for quantification of the five known impurities as well as of unknown impurities.

[3] = Solubility in Fasted State Simulated Intestinal Fluid (FaSSIF); settings: after 15 min, HPLC; for solubility in 30 ml FaSSIF, conc.: 30 ml FaSSIF pH 6.5, approx. 50 mg (as free acid); for solubility in 100 ml FaSSIF, conc.: 100 ml FaSSIF pH 6.5, approx. 50 mg (as free acid)
Description: FaSSIF was prepared according to the literature (e.g. Marques M, Dissolution Technologies, May 2004). […] The pH value was adjusted to 6.5 using 1 N NaOH. The ready-to-use FaSSIF was prepared by dissolving 3.3 g sodium taurocholate in 500 ml blank FaSSIF. Then, 11.8 ml of a solution of 100 mg/ml lecithin in dichloromethane was added and the thereafter, the solvent dichloromethane was removed under vacuum at 40° C. Thereafter the clear solution was transferred into a graduated 2 l flask and made up to volume with blank FaSSIF.
Solubility studies were performed with Licofelone (free acid), Licofelone tromethamol salt (example 2) and Licofelone choline salt (example 1A). The test articles were placed in a beaker, FaSSIF and a magnetic stirring bar were added and the mixture was stirred using a magnetic stirrer. After 15 min, samples were withdrawn, filtered and the clear filtrate was analyzed by HPLC to determine the concentration of Licofelone.
The dissolution test was performed in 100 ml FaSSIF and 30 ml FaSSIF. The lower volume was selected in order to simulate the physiological ratio between drug and intestinal fluid volume.

[4] = stored at elevated temperatures for several weeks

solubility [1] [µg/mL]	stability on storage ([2]; stored at moderately elevated temperatures for several weeks)	solubility in 30 ml FaSSIF, conc. [3] [µg/mL]	solubility in 100 ml FaSSIF, conc. [3] [µg/mL]	Compound	stability on storage [2, 4]
274000	more stable than the free acid	222	228	CC1(C)Cc2c(-c3ccccc3)c(-c3ccc(Cl)cc3)c(CC(=O)O)n2C1 [Licofelone choline salt, 6-(4-chlorophenyl)-2,2-dimethyl-7-phenyl-2,3-dihydro-1H-pyrrolizin-5-ylacetic acid choline salt]	–
66000	–	149	165	CC1(C)Cc2c(-c3ccccc3)c(-c3ccc(Cl)cc3)c(CC(=O)O)n2C1 [Licofelone tromethamine salt, 6-(4-chlorophenyl)-2,2-dimethyl-7-phenyl-2,3-dihydro-1H-pyrrolizin-5-ylacetic acid tromethamine salt]	more stable than the free acid and the choline salt
47000 (≈ 124000 µM)	–	7 (≈ 18.4 µM)	7 (≈ 18.4 µM)	CC1(C)Cc2c(-c3ccccc3)c(-c3ccc(Cl)cc3)c(CC(=O)O)n2C1 [Licofelone (free acid), 6-(4-chlorophenyl)-2,2-dimethyl-7-phenyl-2,3-dihydro-1H-pyrrolizin-5-ylacetic acid, reference compound]	undergoes degradation

— patent US8519155B2, “Choline and tromethamine salt of licofelone” (c-a-i-r biosciences GmbH, priority 2008, dated 2013)
